# Data as given in patent US10294202B2, “Pyrrolidinones as herbicides” (FMC Corporation, priority 2013, dated 2019).
# Columns and labels:
# wheat = test: Test A pre-/postemergence herbicide test; assay type: in vivo, Triticum aestivum; conditions: Postemergence
# Outline: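 Seeds sown in loam soil/sand blend received a preemergence directed soil spray of test chemical in non-phytotoxic solvent with surfactant; postemergence plants (2–10 cm, one- to two-leaf stage) were sprayed with the same formulation. After about 10 days in greenhouse, injury was rated visually versus untreated controls, 0 (no effect) to 100 (complete control).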
# ragweed = test: Test C pre-/postemergence herbicide test; assay type: in vivo, Ambrosia elatior
# Outline: (§1)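 Visual rating, 0 (no effect) to 100 (complete control), versus untreated controls after 13 to 15 days in the greenhouse. Pre: seeds in loam/sand, sprayed at planting. Post: 1- to 4-leaf plants (2 to 18 cm) in peat-based mix. Compounds in non-phytotoxic solvent plus surfactant.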
# corn = test: Test C pre-/postemergence herbicide test; assay type: in vivo, Zea mays
# Outline: as §1
# ducksalad = test: Test B flooded paddy test; assay type: in vivo, Heteranthera limosa; conditions: 500 g ai/ha, Flood; scale of 0 to 100 where 0 is no effect and 100 is complete control
# Outline: (§2)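 Plants grown to 2-leaf stage; pots flooded 3 cm above soil and compound applied directly into paddy water, depth held throughout. Visual rating against untreated controls after 13 to 15 days in greenhouse, 0 (no effect) to 100 (complete control).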
# soybean = test: Test C pre-/postemergence herbicide test; assay type: in vivo, Glycine max
# Outline: as §1
# barnyardgrass = test: Test B flooded paddy test; assay type: in vivo, Echinochloa crus-galli; conditions: 500 g ai/ha, Flood; scale of 0 to 100 where 0 is no effect and 100 is complete control
# Outline: as §2
# oilseed rape = test: Test C pre-/postemergence herbicide test; assay type: in vivo, Brassica napus
# Outline: as §1
# johnsongrass = test: Test C pre-/postemergence herbicide test; assay type: in vivo, Sorghum halepense
# Outline: as §1
# nutsedge, yellow = test: Test C pre-/postemergence herbicide test; assay type: in vivo, Cyperus esculentus
# Outline: as §1
# ryegrass, Italian = test: Test C pre-/postemergence herbicide test; assay type: in vivo, Lolium multiflorum
# Outline: as §1
# pigweed = test: Test C pre-/postemergence herbicide test; assay type: in vivo, Amaranthus retroflexus
# Outline: as §1
# rice = test: Test B flooded paddy test; assay type: in vivo, Oryza sativa; conditions: 500 g ai/ha, Flood; scale of 0 to 100 where 0 is no effect and 100 is complete control
# Outline: as §2
# sedge, umbrella = test: Test B flooded paddy test; assay type: in vivo, Cyperus difformis; conditions: 500 g ai/ha, Flood; scale of 0 to 100 where 0 is no effect and 100 is complete control
# Outline: as §2
# [1] = 125 g ai/ha, visual rating on 0 to 100 scale (0 no effect, 100 complete control), approx. 10 days
# [2] = 500 g ai/ha, 0 to 100 scale (0 no effect, 100 complete control)
# [3] = Postemergence, 31 g ai/ha, scale 0 to 100 (0 no effect, 100 complete control)
# [4] = Postemergence, 62 g ai/ha, scale 0 (no effect) to 100 (complete control)
# [5] = Postemergence, 125 g ai/ha, scale 0 to 100 (0 no effect, 100 complete control)
# [6] = Postemergence, 250 g ai/ha, scale 0 to 100 (0 no effect, 100 complete control)
# [7] = Preemergence, 62 g ai/ha, scale 0 to 100 (0 no effect, 100 complete control)
# [8] = Preemergence, 125 g ai/ha, scale 0 to 100
# [9] = Preemergence, 31 g ai/ha, scale 0 to 100, 0 is no effect and 100 is complete control
# [10] = Preemergence, 125 g ai/ha, scale 0 to 100 (0 no effect, 100 complete control)
smiles,measurement,setting,value
O=C1NCC(c2cccc(C(F)(F)F)c2)C1C(=O)Nc1cccc(Cl)c1F (stereo not shown) [Compound 316],"Plant response rating, Wheat",wheat; [1],20
same,"Plant response rating, Wheat",wheat; [2],40
same,"Plant response rating, Ragweed",ragweed; [3],45
same,"Plant response rating, Ragweed",ragweed; [4],0
same,"Plant response rating, Ragweed",ragweed; [5],35
same,"Plant response rating, Ragweed",ragweed; [6],65
same,Ragweed plant response rating,ragweed; [7],0
same,"Plant response rating, Ragweed",ragweed; [8],10
same,"Plant response rating, Corn",corn; [3],0
same,"Plant response rating, Corn",corn; [4],0
same,"Plant response rating, Corn",corn; [5],0
same,"Plant response rating, Corn",corn; [6],0
same,Corn plant response rating,corn; [9],15
same,Corn plant response rating,corn; [7],75
same,"Plant response rating, Corn",corn; [8],65
same,"Plant response rating (scale of 0 to 100), Corn","corn; Preemergence, 250 g ai/ha",75
same,"Plant response rating, Ducksalad",ducksalad,100
same,"Plant response rating, Soybean",soybean; [3],0
same,"Plant response rating, Soybean",soybean; [4],0
same,"Plant response rating, Soybean",soybean; [5],0
same,"Plant response rating, Soybean",soybean; [6],0
same,Soybean plant response rating,soybean; [7],0
same,"Plant response rating, Soybean",soybean; [8],0
same,"Plant response rating, Barnyardgrass",barnyardgrass,60
same,"Plant response rating, Oilseed Rape",oilseed rape; [3],0
same,"Plant response rating, Oilseed Rape",oilseed rape; [4],0
same,"Plant response rating, Oilseed Rape",oilseed rape; [5],0
same,"Plant response rating, Oilseed Rape",oilseed rape; [6],0
same,Oilseed Rape plant response rating,oilseed rape; [9],0
same,Oilseed Rape plant response rating,oilseed rape; [7],0
same,"Plant response rating, Oilseed Rape",oilseed rape; [8],20
same,"Plant response rating (scale of 0 to 100), Oilseed Rape","oilseed rape; Preemergence, 250 g ai/ha",60
same,"Plant response rating, Johnsongrass",johnsongrass; [3],0
same,"Plant response rating, Johnsongrass",johnsongrass; [4],0
same,"Plant response rating, Johnsongrass",johnsongrass; [5],0
same,"Plant response rating, Johnsongrass",johnsongrass; [6],0
same,Johnsongrass plant response rating,johnsongrass; [9],50
same,Johnsongrass plant response rating,johnsongrass; [7],75
same,"Plant response rating, Johnsongrass",johnsongrass; [8],75
same,"Plant response rating (scale of 0 to 100), Johnsongrass","johnsongrass; Preemergence, 250 g ai/ha",85
same,"Plant response rating, Nutsedge, Yellow","nutsedge, yellow; [3]",0
same,"Plant response rating, Nutsedge, Yellow","nutsedge, yellow; [4]",0
same,"Plant response rating, Nutsedge, Yellow","nutsedge, yellow; [5]",0
same,"Plant response rating, Nutsedge, Yellow","nutsedge, yellow; [6]",0
same,"Nutsedge, Yellow plant response rating","nutsedge, yellow; [9]",0
same,"Nutsedge, Yellow plant response rating","nutsedge, yellow; [7]",0
same,"Plant response rating, Nutsedge, Yellow","nutsedge, yellow; [8]",0
same,"Plant response rating (scale of 0 to 100), Nutsedge, Yellow","nutsedge, yellow; Preemergence, 250 g ai/ha",70
same,"Plant response rating, Ryegrass, Italian","ryegrass, Italian; [3]",0
same,"Plant response rating, Ryegrass, Italian","ryegrass, Italian; [4]",0
same,"Plant response rating, Ryegrass, Italian","ryegrass, Italian; [5]",0
same,"Plant response rating, Ryegrass, Italian","ryegrass, Italian; [6]",5
same,"Ryegrass, Italian plant response rating","ryegrass, Italian; [7]",0
same,"Plant response rating, Ryegrass, Italian","ryegrass, Italian; [8]",10
same,"Plant response rating, Pigweed",pigweed; [3],15
same,"Plant response rating, Pigweed",pigweed; [4],50
same,"Plant response rating, Pigweed",pigweed; [5],60
same,"Plant response rating, Pigweed",pigweed; [6],75
same,Pigweed plant response rating,pigweed; [9],25
same,Pigweed plant response rating,pigweed; [7],25
same,"Plant response rating, Pigweed",pigweed; [8],45
same,"Plant response rating, Rice",rice,0
same,"Plant response rating, Sedge, Umbrella","sedge, umbrella",0
O=C1NCC(c2ccc(C(F)(F)F)cc2)C1C(=O)Nc1ccccc1Cl (stereo not shown) [Compound 233],"Plant response rating, Wheat","wheat; 125 g ai/ha, 0 to 100 scale, 0 is no effect, 100 is complete control",0
same,"Wheat plant response rating (0 to 100 scale, 0 is no effect, 100 is complete control)",wheat; 500 g ai/ha,20
same,Ragweed plant response rating,ragweed; [9],10
same,Ragweed plant response rating,ragweed; [7],40
same,"Plant response rating, Ragweed",ragweed; [10],40
same,"Plant response rating (scale of 0 to 100), Ragweed","ragweed; Preemergence, 250 g ai/ha",85
same,Corn plant response rating,corn; [9],0
same,Corn plant response rating,corn; [7],0
same,"Plant response rating, Corn",corn; [10],10
same,"Plant response rating (scale of 0 to 100), Corn","corn; Preemergence, 250 g ai/ha",35
same,"Plant response rating, Ducksalad",ducksalad,100
same,Soybean plant response rating,soybean; [9],0
same,Soybean plant response rating,soybean; [7],0
same,"Plant response rating, Soybean",soybean; [10],5
same,"Plant response rating (scale of 0 to 100), Soybean","soybean; Preemergence, 250 g ai/ha",0
same,"Plant response rating, Barnyardgrass",barnyardgrass,60
same,Oilseed Rape plant response rating,oilseed rape; [9],0
same,Oilseed Rape plant response rating,oilseed rape; [7],40
same,"Plant response rating, Oilseed Rape",oilseed rape; [10],80
same,"Plant response rating (scale of 0 to 100), Oilseed Rape","oilseed rape; Preemergence, 250 g ai/ha",85
same,Johnsongrass plant response rating,johnsongrass; [9],0
same,Johnsongrass plant response rating,johnsongrass; [7],0
same,"Plant response rating, Johnsongrass",johnsongrass; [10],20
same,"Plant response rating (scale of 0 to 100), Johnsongrass","johnsongrass; Preemergence, 250 g ai/ha",45
same,"Nutsedge, Yellow plant response rating","nutsedge, yellow; [9]",0
same,"Nutsedge, Yellow plant response rating","nutsedge, yellow; [7]",0
same,"Plant response rating, Nutsedge, Yellow","nutsedge, yellow; [10]",0
same,"Plant response rating (scale of 0 to 100), Nutsedge, Yellow","nutsedge, yellow; Preemergence, 250 g ai/ha",0
same,"Ryegrass, Italian plant response rating","ryegrass, Italian; [9]",0
same,"Ryegrass, Italian plant response rating","ryegrass, Italian; [7]",0
same,"Plant response rating, Ryegrass, Italian","ryegrass, Italian; [10]",30
same,"Plant response rating (scale of 0 to 100), Ryegrass, Italian","ryegrass, Italian; Preemergence, 250 g ai/ha",40
same,Pigweed plant response rating,pigweed; [9],50
same,Pigweed plant response rating,pigweed; [7],50
same,"Plant response rating, Pigweed",pigweed; [10],60
same,"Plant response rating (scale of 0 to 100), Pigweed","pigweed; Preemergence, 250 g ai/ha",70
same,"Plant response rating, Rice",rice,0
same,"Plant response rating, Sedge, Umbrella","sedge, umbrella",0
O=C1NCC(c2cccc(Br)c2)C1C(=O)Nc1ccccc1F (stereo not shown) [Compound 307],"Plant response rating, Wheat",wheat; [1],0
same,"Plant response rating, Wheat",wheat; [2],30
same,Ragweed plant response rating,ragweed; [7],0
same,"Plant response rating, Ragweed",ragweed; [8],0
same,"Plant response rating (scale of 0 to 100), Ragweed","ragweed; Preemergence, 250 g ai/ha",35
same,Corn plant response rating,corn; [9],0
same,Corn plant response rating,corn; [7],0
same,"Plant response rating, Corn",corn; [8],40
same,"Plant response rating (scale of 0 to 100), Corn","corn; Preemergence, 250 g ai/ha",40
same,"Plant response rating, Ducksalad",ducksalad,98
same,Soybean plant response rating,soybean; [7],0
same,"Plant response rating, Soybean",soybean; [8],0
same,"Plant response rating (scale of 0 to 100), Soybean","soybean; Preemergence, 250 g ai/ha",0
same,"Plant response rating, Barnyardgrass",barnyardgrass,65
same,Oilseed Rape plant response rating,oilseed rape; [9],0
same,Oilseed Rape plant response rating,oilseed rape; [7],0
same,"Plant response rating, Oilseed Rape",oilseed rape; [8],0
same,"Plant response rating (scale of 0 to 100), Oilseed Rape","oilseed rape; Preemergence, 250 g ai/ha",5
same,Johnsongrass plant response rating,johnsongrass; [9],0
same,Johnsongrass plant response rating,johnsongrass; [7],0
same,"Plant response rating, Johnsongrass",johnsongrass; [8],0
same,"Plant response rating (scale of 0 to 100), Johnsongrass","johnsongrass; Preemergence, 250 g ai/ha",45
same,"Nutsedge, Yellow plant response rating","nutsedge, yellow; [9]",0
same,"Nutsedge, Yellow plant response rating","nutsedge, yellow; [7]",0
same,"Plant response rating, Nutsedge, Yellow","nutsedge, yellow; [8]",0
same,"Plant response rating (scale of 0 to 100), Nutsedge, Yellow","nutsedge, yellow; Preemergence, 250 g ai/ha",0
same,"Ryegrass, Italian plant response rating","ryegrass, Italian; [7]",0
same,"Plant response rating, Ryegrass, Italian","ryegrass, Italian; [8]",5
same,"Plant response rating (scale of 0 to 100), Ryegrass, Italian","ryegrass, Italian; Preemergence, 250 g ai/ha",10
same,Pigweed plant response rating,pigweed; [9],0
same,Pigweed plant response rating,pigweed; [7],0
same,"Plant response rating, Pigweed",pigweed; [8],40
same,"Plant response rating (scale of 0 to 100), Pigweed","pigweed; Preemergence, 250 g ai/ha",35
same,"Plant response rating, Rice",rice,0
same,"Plant response rating, Sedge, Umbrella","sedge, umbrella",0
